Target: Oligo-1,6-glucosidase IMA1 (Saccharomyces cerevisiae S288c, UniProt P53051)
Assay: Inhibition of baker's yeast alpha-glucosidase by 4-nitrophenolate-based assay

Chain of Oligo-1,6-glucosidase IMA1 (P53051 whole entry): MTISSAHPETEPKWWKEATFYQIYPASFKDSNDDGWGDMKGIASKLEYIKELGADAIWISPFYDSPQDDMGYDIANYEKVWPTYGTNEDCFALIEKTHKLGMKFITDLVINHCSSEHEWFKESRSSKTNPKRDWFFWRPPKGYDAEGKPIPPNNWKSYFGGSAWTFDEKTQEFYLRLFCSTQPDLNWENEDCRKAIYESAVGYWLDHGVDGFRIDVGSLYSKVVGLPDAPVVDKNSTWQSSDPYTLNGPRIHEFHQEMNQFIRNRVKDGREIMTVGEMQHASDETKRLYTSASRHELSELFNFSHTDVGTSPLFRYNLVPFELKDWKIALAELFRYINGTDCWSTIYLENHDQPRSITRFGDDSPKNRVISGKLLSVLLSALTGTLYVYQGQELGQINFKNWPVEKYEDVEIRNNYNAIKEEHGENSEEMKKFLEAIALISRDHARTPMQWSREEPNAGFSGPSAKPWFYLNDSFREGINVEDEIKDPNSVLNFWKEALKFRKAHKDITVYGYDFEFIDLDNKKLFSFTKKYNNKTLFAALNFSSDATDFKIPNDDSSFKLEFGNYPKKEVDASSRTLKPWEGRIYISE

IC50 [mM]	SMILES
2.1	OCCN1C[C@@H](F)[C@@H](O)[C@H](O)[C@H]1CO
9.9	OCCN1C[C@H](O)[C@@H](O)[C@H](O)[C@H]1CO [MIGLITOL]

— ChEMBL document CHEMBL1155187, “Amplification of the inhibitory activity of miglitol by monofluorination” (Bioorg Med Chem Lett, 2009)
